Measurements from PMC5378332, “Molecular actions of two synthetic brassinosteroids, iso-carbaBL and 6-deoxoBL, which cause altered physiological activities between Arabidopsis and rice” (PLoS ONE, 2017).

Columns and labels:
rice BRI1 LRR17-ID-LRR18 = target: T1, rice BRI1 LRR17-ID-LRR18 (Oryza sativa, UniProt Q942F3); assay: competition with BPCS photoaffinity crosslinking, anti-biotin immunoblot; assay type: binding; conditions: dose-dependent competition; GST-normalised
T1 construct: extracellular LRR17-island domain-LRR18 fragment, amino acids 484-600; N-terminal GST fusion from pGEX6P-1, GST kept; glutathione-Sepharose purified
T1 sequence (Q942F3 484-600): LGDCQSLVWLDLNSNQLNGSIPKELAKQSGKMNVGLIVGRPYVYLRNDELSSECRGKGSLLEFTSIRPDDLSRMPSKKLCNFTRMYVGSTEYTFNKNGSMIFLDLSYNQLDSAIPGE

[1] = target: T2, Arabidopsis BRI1 LRR21-ID-LRR22 (Arabidopsis thaliana, UniProt O22476); assay: as above; assay type: binding; conditions: dose-dependent competition; GST-normalised
T2 construct: extracellular LRR21-island domain-LRR22 fragment, amino acids 556-673; N-terminal GST fusion from pGEX6P-1, GST kept; glutathione-Sepharose purified
T2 sequence (O22476 556-673): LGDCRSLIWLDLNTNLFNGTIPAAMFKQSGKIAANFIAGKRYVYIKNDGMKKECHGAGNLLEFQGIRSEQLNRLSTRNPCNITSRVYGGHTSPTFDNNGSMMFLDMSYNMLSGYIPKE

SMILES | competition with BPCS photoaffinity crosslinking, anti-biotin immunoblot (rice BRI1 LRR17-ID-LRR18) | competition with BPCS photoaffinity crosslinking, anti-biotin immunoblot [1]
CC(C)[C@H](C)[C@@H](O)[C@H](O)[C@@H](C)[C@H]1CC[C@H]2[C@@H]3CC(=O)C[C@H]4C[C@@H](O)[C@@H](O)C[C@]4(C)[C@H]3CC[C@]12C [iso-carbaBL] | decreased the binding of BPCS not only to Arabidopsis BRI1, but also to rice BRI1 | decreased the binding of BPCS not only to Arabidopsis BRI1, but also to rice BRI1
CC(C)[C@H](C)[C@@H](O)[C@H](O)[C@@H](C)[C@H]1CC[C@H]2[C@@H]3COC(=O)[C@H]4C[C@H](O)[C@H](O)C[C@]4(C)[C@H]3CC[C@]12C [BL, (22R,23R,24S)-2α,3α,22,23-tetrahydroxy-24-methyl-B-homo7-oxa-5α-cholestan-6-one] | BL, the positive control, inhibited the binding of BPCS to both Arabidopsis and rice BRI1 | 
